# According to US20100204219A1, “AROMATIC 1,4-DI-CARBOXYLAMIDES AND THEIR USE” (priority 2006, published 2010):
# Target: T1, βCat-BCL9 (beta-Catenin/BCL9-BCL9L interaction) (Homo sapiens, UniProt P35222)
# T1 sequence (P35222 1-781): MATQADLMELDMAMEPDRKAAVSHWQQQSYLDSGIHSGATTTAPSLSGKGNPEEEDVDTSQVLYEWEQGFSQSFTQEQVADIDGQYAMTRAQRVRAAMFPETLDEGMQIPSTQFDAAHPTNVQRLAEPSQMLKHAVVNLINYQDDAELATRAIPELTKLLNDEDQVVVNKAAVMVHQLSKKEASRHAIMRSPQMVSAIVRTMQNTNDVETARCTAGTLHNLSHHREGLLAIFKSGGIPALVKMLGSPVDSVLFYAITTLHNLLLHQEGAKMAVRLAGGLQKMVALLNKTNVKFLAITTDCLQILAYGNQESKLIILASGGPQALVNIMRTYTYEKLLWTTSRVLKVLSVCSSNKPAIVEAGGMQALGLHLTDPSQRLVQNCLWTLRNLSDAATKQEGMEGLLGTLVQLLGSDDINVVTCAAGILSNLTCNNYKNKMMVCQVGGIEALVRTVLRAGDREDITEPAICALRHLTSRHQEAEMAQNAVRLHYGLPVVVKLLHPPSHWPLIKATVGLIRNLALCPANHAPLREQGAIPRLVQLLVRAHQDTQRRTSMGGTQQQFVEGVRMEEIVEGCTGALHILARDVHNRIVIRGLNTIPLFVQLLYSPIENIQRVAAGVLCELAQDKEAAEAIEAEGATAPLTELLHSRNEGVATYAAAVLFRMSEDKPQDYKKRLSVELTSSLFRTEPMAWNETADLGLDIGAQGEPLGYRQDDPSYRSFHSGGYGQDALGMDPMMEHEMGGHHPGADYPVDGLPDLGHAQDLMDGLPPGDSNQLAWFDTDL
# Test: ELISA based protein-protein interaction assay, βCat-BCL9
# Format: binding
# Conditions: Example 1
# Text: cDNAs including the binding domains of Lgs and beta-Catenin were fused down-stream of glutathione-S-transferase (GST) cDNA in pGEX-4T inducible bacterial expression vector (Pharmacia). Similar recombinant DNA constructs were generated in the pET-32a(+) vector (Novagen) for expression of fusion protein containing the Thioredoxine-6His tag at their N-terminus. Fusion proteins were produced in BL21 bacteria (e.g. Stratagene) following manufacturer's recommendation.
# To isolate the produced fusions protein, bacteria were ground in aluminum oxide (Sigma, A2039) and the resulting powder extracted in lysis buffer (140 mM NaCl, 10 mM Na2HPO4, 1.8 mM KH2PO4, 2.7 mM KCl, 1 mM EDTA, 1% Triton-X-100, 1 mM DTT and protease inhibitors) under rotation for 30 minutes. Supernatants were cleared by centrifugation then filtered on a 0.45 μm membrane before protein purification. For GST tagged protein, lysate were processed on glutathione agarose beads following manufacturer's recommendation (Amersham Pharmacia) and purified proteins eluted in 50 mM Tris-Cl, 10 mM reduced glutathione pH8.0. For thioredoxine-6His fusions, tagged proteins were purified from the lysate on a nickel chelating column (e.g. Hitrap chelating, G.E. Healthcare) using an HPLC system (e.g. Akta Prime, G.E. Healthcare) and eluted under increasing concentration of imidazole. The purified proteins solution was dialyzed against PBS before use. The quality of the preparations was checked by SDS-gel electrophoresis by standard methods well known by persons skilled in the art.
# Compound preparation: Compounds can be prepared as 25 mM stock in DMSO and diluted in DMSO to reach final test concentrations of up to 100 μM. Final DMSO concentration in the assay is 5%.
# 100 μl of GST fusion protein (e.g. GST-βCatenin) diluted to the appropriate concentration in phosphate buffer saline are added per well to a 96 well plate with high protein binding capacity (e.g. Nunc Maxisorp) and placed at 4° C. overnight. The following day the liquid in the wells is discarded and 150 μl 3% bovine serum albumin (BSA) in PBS are added to each well and incubated at room temperature for 2 hours under moderate shaking. This solution is then discarded and each well washed twice with 200 μl PBS. After carefully discarding the second wash, a mixture of 5 μl compound dilution and 95 μl 6His fusion protein (e.g. 6His-Bcl9) diluted to the appropriate concentration in PBS is added to each well. The plate is then incubated for 1 hour at room temperature under moderate shaking. This protein solution is then discarded and the wells washed 3 times with 200 μl 0.1% Tween-20 solution in PBS. After carefully discarding the final wash, 100 μl of anti 6His antibody conjugated to the horse-radish peroxidase (e.g. Roche antibody 11965085001) at the appropriate dilution in 1% BSA in PBS is added to the wells and the plate incubated for 1 hour at room temperature under moderate shaking. This solution is then discarded and the wells washed 3 times with 200 μl 0.1% Tween-20 solution in PBS. After carefully discarding the final wash, 100 μl of HRP substrate […] (TMB) in solution (e.g. Sigma T0440) is added to the wells and the plate incubated up to 30 minutes in the dark at room temperature. The reaction is stopped by addition of 100 μl of 2N HCl to each well and the optical density is measured at 450 nm and 630 nm.
row,SMILES,IC50
1,O=C(Nc1cc(C(F)(F)F)ccc1Cl)c1ccc(C(=O)Nc2cc(C(F)(F)F)ccc2Cl)nc1 [TGC0011278],> 100 µM
2,CC(=O)Nc1cccc(NC(=O)c2ccc(C(=O)Nc3cccc(NC(C)=O)c3)nc2)c1 [TGC0011279],> 100 µM
3,CCN(CC)c1ccc(NC(=O)c2ccc(C(=O)Nc3ccc(N(CC)CC)cc3)nc2)cc1 [TGC0011281],> 100 µM
4,COc1ccc(Cl)cc1NC(=O)c1ccc(C(=O)Nc2cc(Cl)ccc2OC)nc1 [TGC0011282],> 100 µM
5,CC(C)NC(=O)c1ccc(C(=O)NC(C)C)nc1 [TGC0011283],> 100 µM
6,O=C(NCc1ccccc1)c1ccc(C(=O)NCc2ccccc2)nc1 [TGC0011284],> 100 µM
7,O=C(Nc1ccccc1)c1ccc(C(=O)Nc2ccccc2)nc1 [TGC0011286],> 100 µM
8,O=C(Nc1ccc(F)c(Cl)c1)c1ccc(C(=O)Nc2ccc(F)c(Cl)c2)nc1 [TGC0011287],> 100 µM
9,CC(C)(C)C1CCc2c(sc(NC(=O)c3ccc(C(=O)Nc4sc5c(c4C#N)CCC(C(C)(C)C)C5)nc3)c2C#N)C1 (stereo not drawn) [TGC0011343],> 100 µM
10,O=C(NCC1CCCO1)c1ccc(C(=O)NCC2CCCO2)nc1 (stereo not drawn) [TGC0011424],> 50 µM
11,O=C(c1ccc(C(=O)N2CCOCC2)nc1)N1CCOCC1 [TGC0011426],> 50 µM
12,O=C(Nc1ccc2c(c1)OCO2)c1ccc(C(=O)Nc2ccc3c(c2)OCO3)nc1 [TGC0011431],> 50 µM
13,CCCCc1ccc(NC(=O)c2ccc(C(=O)Nc3ccc(CCCC)cc3)nc2)cc1 [TGC0011433],> 50 µM
14,O=C(NCCC1=CCCCC1)c1ccc(C(=O)NCCC2=CCCCC2)nc1 [TGC0011435],> 50 µM
15,CCC(C)NC(=O)c1ccc(C(=O)NC(C)CC)nc1 (stereo not drawn) [TGC0011437],> 50 µM
16,O=C(NCCc1ccc(F)cc1)c1ccc(C(=O)NCCc2ccc(F)cc2)nc1 [TGC0011447],> 50 µM

row,SMILES,IC50
1,O=C(NCCc1ccccc1OC(F)(F)F)c1ccc(C(=O)NCCc2ccccc2OC(F)(F)F)nc1 [TGC0011454],> 100 µM
2,O=C(NCCc1ccccn1)c1ccc(C(=O)NCCc2ccccn2)nc1 [TGC0011455],> 100 µM
3,COc1cccc(CCNC(=O)c2ccc(C(=O)NCCc3cccc(OC)c3OC)nc2)c1OC [TGC0011456],> 100 µM
4,COc1ccc(OC)c(CCNC(=O)c2ccc(C(=O)NCCc3cc(OC)ccc3OC)nc2)c1 [TGC0011457],> 100 µM
5,CC(=O)Nc1ccc(-c2cnc(-c3ccc(NC(C)=O)cc3)nc2)cc1 [TGC0011524],> 100 µM
6,O=C(Nc1ccc(-c2cnc(-c3ccc(NC(=O)C(F)(F)F)cc3)nc2)cc1)C(F)(F)F [TGC0011526],> 100 µM
7,Cc1ccccc1C(=O)Nc1ccc(-c2cnc(-c3ccc(NC(=O)c4ccccc4C)cc3)nc2)cc1 [TGC0011529],> 100 µM
8,O=C(Nc1ccc(-c2cnc(-c3ccc(NC(=O)c4ccc(Br)cc4)cc3)nc2)cc1)c1ccc(Br)cc1 [TGC0011533],> 100 µM
9,CC(C)(C)C(=O)Nc1ccc(C(=O)Nc2ccc(-c3cnc(-c4ccc(NC(=O)c5ccc(NC(=O)C(C)(C)C)cc5)cc4)nc3)cc2)cc1 [TGC0011534],> 100 µM
10,O=C(COc1ccc(Br)cc1)Nc1ccc(-c2cnc(-c3ccc(NC(=O)COc4ccc(Br)cc4)cc3)nc2)cc1 [TGC0011565],> 100 µM
11,COc1ccc(CCNC(=O)c2ccc(C(=O)NCCc3ccc(OC)c(Cl)c3)nc2)cc1Cl [TGC0011593],> 100 µM
12,O=C(Nc1cccnc1O)c1ccc(C(=O)Nc2cccnc2O)nc1 [TGC0012261],> 100 µM
13,O=C(Nc1ccc(F)c(F)c1)c1ccc(C(=O)Nc2ccc(F)c(F)c2)nc1 [TGC0012289],> 50 µM
14,O=C(O)c1ccc(NC(=O)c2ccc(C(=O)Nc3ccc(C(=O)O)cc3)cc2)cc1 [TGC0012290],> 50 µM
15,COc1cc(C(=O)Nc2ccncc2)c(OC)cc1C(=O)Nc1ccncc1 [TGC0012291],> 50 µM
16,CC(=O)Nc1ccc(NC(=O)c2ccc(C(=O)Nc3ccc(NC(C)=O)cc3)cc2)cc1 [TGC0012292],> 50 µM

# Further lines, results first:
row,IC50,SMILES
1,> 50 µM,Cc1cc(NC(=O)c2ccc(C(=O)Nc3cc(C)on3)nc2)no1 [TG00011289]
2,> 50 µM,COc1cc(-c2ccc(NC(=O)c3cc(-c4ccc(C)o4)nc4ccccc34)c(OC)c2)ccc1NC(=O)c1cc(-c2ccc(C)o2)nc2ccccc12 [TGC0000161]
3,> 10 µM,O=C(NCc1ccc(F)cc1)c1ccc(C(=O)NCc2ccc(F)cc2)nc1 [TGC0011337]
4,> 10 µM,CC(=O)c1cccc(NC(=O)c2ccc(C(=O)Nc3cccc(C(C)=O)c3)nc2)c1 [TGC0011338]
5,> 10 µM,O=C(NCc1ccc(Cl)cc1)c1ccc(C(=O)NCc2ccc(Cl)cc2)nc1 [TGC0011339]
6,> 20 µM,O=C(NCCc1cccc(Cl)c1)c1ccc(C(=O)NCCc2cccc(Cl)c2)nc1 [TGC0011340]
7,> 10 µM,Cc1cc(I)ccc1NC(=O)c1ccc(C(=O)Nc2ccc(I)cc2C)nc1 [TGC0011341]
8,> 25 µM,O=C(c1ccc(C(=O)N2CCCc3ccccc32)nc1)N1CCCc2ccccc21 [TGC0011425]
9,> 25 µM,COc1ccc(CNC(=O)c2ccc(C(=O)NCc3ccc(OC)cc3)nc2)cc1 [TGC0011427]
10,> 25 µM,O=C(c1ccc(C(=O)N2CCC(Cc3ccccc3)CC2)nc1)N1CCC(Cc2ccccc2)CC1 [TGC0011429]
11,> 10 µM,CC(CCc1ccccc1)NC(=O)c1ccc(C(=O)NC(C)CCc2ccccc2)nc1 (stereo not drawn) [TGC0011436]
12,> 10 µM,COc1ccccc1CCNC(=O)c1ccc(C(=O)NCCc2ccccc2OC)nc1 [TGC0011445]
13,> 10 µM,COc1cccc(CCNC(=O)c2ccc(C(=O)NCCc3cccc(OC)c3)nc2)c1 [TGC0011446]
14,> 10 µM,O=C(NCCc1ccc2c(c1)OCO2)c1ccc(C(=O)NCCc2ccc3c(c2)OCO3)nc1 [TGC0011448]
15,> 10 µM,O=C(NCCc1cccc(C(F)(F)F)c1)c1ccc(C(=O)NCCc2cccc(C(F)(F)F)c2)nc1 [TGC0011452]
16,> 10 µM,CC(C)(C)C(=O)Nc1ccc(-c2cnc(-c3ccc(NC(=O)C(C)(C)C)cc3)nc2)cc1 [TGC0011525]
17,> 10 µM,CC(C)(C)C(=O)Nc1cccc(C(=O)Nc2ccc(-c3cnc(-c4ccc(NC(=O)c5cccc(NC(=O)C(C)(C)C)c5)cc4)nc3)cc2)c1 [TGC0011527]
18,> 10 µM,O=C(Nc1ccc(-c2cnc(-c3ccc(NC(=O)c4ccccc4Cl)cc3)nc2)cc1)c1ccccc1Cl [TGC0011530]
19,> 10 µM,O=C(Nc1ccc(-c2cnc(-c3ccc(NC(=O)c4ccco4)cc3)nc2)cc1)c1ccco1 [TGC0011531]
20,> 10 µM,COc1ccc(CCNC(=O)c2cnc(C(=O)NCCc3ccc(OC)c(OC)c3)cn2)cc1OC [TGC0011592]
21,38 µM,COc1ccc(CCNC(=O)c2ccc(-c3ccc(C(=O)NCCc4ccc(OC)c(OC)c4)cn3)nc2)cc1OC [TGC0012281]
22,> 10 µM,NC(=O)c1ccc(NC(=O)c2ccc(C(=O)Nc3ccc(C(N)=O)cc3)cc2)cc1 [TGC0012293]
